# Laboratory results from patent US20240261267A1, “METHODS FOR TREATING MULTIPLE SCLEROSIS” (Vanda Pharmaceuticals Inc., priority 2021, published 2024).
# Key:
# [1] = test system: adult subjects with relapsing MS; test: Phase III OPTIMUM study, safety and treatment discontinuation
# Experimental: A prospective, multicenter, randomized, double-blind, active controlled, parallel-group, phase III, superiority study (Phase III OPTIMUM study) was conducted.
# Subjects had active disease evidenced by one or more MS attacks with onset within the period of 12 to 1 months prior to baseline EDSS assessment, or by two or more MS attacks with onset within the 24 to 1 months prior to baseline EDSS assessment, or with one or more gadolinium-enhancing (Gd+) lesion(s) of the brain on an MRI performed within 6 months prior to baseline EDSS assessment. Enrolled subjects were ambulatory with an EDSS score of up to 5.5 inclusive. The subjects were treatment-naïve (i.e., no MS disease-modifying therapy received at any time in the past) or previously treated with interferon (IFN) β-1a, IFN β-1b, glatiramer acetate, dimethyl fumarate, or natalizumab.
# The treatment period consisted of an up-titration period (from Day 1 to 14) and a maintenance period (Day 15 until EOT).
# To reduce the first-dose effect of ponesimod, an up-titration scheme was implemented from Day 1 to Day 14: • Days 1 and 2; 2 mg. • Days 3 and 4; 3 mg. • Days 5 and 6; 4 mg. • Day 7; 5 mg. • Day 8; 6 mg. • Day 9; 7 mg. • Day 10; 8 mg. • Day 11; 9 mg. • Days 12, 13, and 14; 10 mg. • Day 15 until EOT; 20 mg.
# The Safety Set (SAF) included all randomized subjects who received at least one dose of study treatment. Subjects were analyzed based on actual treatment taken, not randomized treatment.
# [2] = comparison given in brackets; cited from earlier work
# primary mouse OPCs = test: agarose drop migration assay; type: cell-based; settings: 3000 nM; after 5 days; normalized to 0.1% DMSO
# Experimental: The effects of ponesimod, a selective S1P1 receptor agonist, and A971432, a selective S1P5 receptor agonist, on oligodendrocyte precursor cell (OPC) migration and differentiation were evaluated. Nine concentrations were tested (logarithmic dilutions ranging from 0.3 nM to 3000 nM, n=6 per concentration). Fingolimod phosphate (P-FTY720, 3000 nM, n=6) was included as a positive control, 0.1% DMSO was included (min.one/plate) as a negative control. Primary mouse OPCs were harvested on postnatal day 0 or 1 and mixed glia cultures were maintained for 14 days. Primary OPCs were then purified using the shake-off method, and used for either a migration assay, or a differentiation assay, as detailed below. To harvest primary mouse OPCs, cortices are isolated from mouse pups on postnatal day 0 or 1 and placed in ice-cold Dulbecco's Modified Eagle Medium (DMEM) (Sigma Aldrich, Overijse, BE). The cortices are homogenized and centrifuged for 5 minutes at 300 G. The supernatant is removed, and a papain solution is added for 30 minutes (125 uL DMEM solution per brain containing 20 units/ml papain and 40 μg/ml DNase, at 37 degrees). Digestion is inactivated by adding 9 ml cold DMEM. The solution is then centrifuged for 5 minutes at […]. The supernatant is carefully removed, and the pellet is resuspended in 2-5 ml culture medium (DMEM with 10% fetal calf serum (Biowest, Nuaillé, FR) and 1% pen/strep (Sigma Aldrich, Overijse, BE)). […] Cell suspension is divided over PLL (Sigma Aldrich, Overijse, BE)-coated flasks (2 brains per flask) and DMEM is added to a final volume of 10 ml. DMEM is replaced on day 4, 7, and 11. On day 7 and 11, insulin (Sigma Aldrich, Overijse, BE) is added to the medium (5μg/ml). On day 14, OPCs are separated from astrocytes by the shake-off method: flasks are placed on a shaker for 45 minutes at 75 rpm (37 degrees). […] The extent of cell migration is then measured after 5 days using Incucyte imaging analysis and fluorescent endpoint staining. For each well, the 15-20 cells that migrated the furthest away from the agarose drop are measured and averaged. […]
# [3] = Safety Set, ponesimod 20 mg, teriflunomide 14 mg
# [4] = ponesimod 20 mg, teriflunomide 14 mg
molecule,measurement,setting,value
C/C(O)=C(\C#N)C(=O)Nc1ccc(C(F)(F)F)cc1 [teriflunomide],subjects with asymptomatic post-dose HR≤40 bpm,"[1]; Day 1, all with pre-treatment HR<55 bpm",none
same,"AEs leading to premature discontinuation of study drug, SOC Eye disorders",[1]; [3],0 n
same,"AEs leading to premature discontinuation of study drug, SOC Respiratory, thoracic and mediastinal disorders",[1]; [3],0 n
same,"AEs leading to premature discontinuation of study drug, SOC Vascular disorders",[1]; [3],0 n
same,Subject with at least one AE leading to study drug discontinuation,[1]; [3],6.0%
same,Subject with at least one Serious AE,[1]; [3],8.1%
same,Subject with at least one treatment-emergent AE,[1]; [3],88.2%
same,Treatment-emergent AESI: Hepatobiliary disorders/Liver enzyme abnormality,[1]; [3],14.5%
same,Treatment-emergent AESI: Hypertension,[1]; [3],9.0%
same,Treatment-emergent AESI: Pulmonary events,[1]; [3],2.7%
same,mean heart rate reduction compared to pre-dose,"[1]; at 2-hours post dose, Day 1",−1.7 bpm
same,AESI heart rate and rhythm: Atrioventricular block first degree,"[1]; on Day 1, Safety Set",0 n
same,AESI heart rate and rhythm: Bradycardia,"[1]; on Day 1, Safety Set",0 n
same,AESI heart rate and rhythm: Bundle branch block left,"[1]; on Day 1, Safety Set",0 n
same,AESI heart rate and rhythm: Bundle branch block right,"[1]; on Day 1, Safety Set",0 n
same,AESI heart rate and rhythm: Defect conduction intraventricular,"[1]; on Day 1, Safety Set",0 n
same,AESI heart rate and rhythm: Sinus arrhythmia,"[1]; on Day 1, Safety Set",0 n
same,AESI heart rate and rhythm: Sinus bradycardia,"[1]; on Day 1, Safety Set",0 n
same,AESI effect on heart rate and rhythm (including hypotension): Subjects with at least one AE,"[1]; on Day 1, Safety Set, ponesimod arm (2 mg on Day 1), teriflunomide 14 mg",0.4%
same,TEAE ALT increased,[1]; [4],9.4%
same,TEAE headache,[1]; [4],12.7%
same,TEAE nasopharyngitis,[1]; [4],16.8%
same,TEAE upper respiratory tract infection,[1]; [4],10.4%
same,proportion of subjects who experienced ALT increase>3×ULN,[1]; [4],8.3%
same,proportion of subjects who experienced ALT increase>8×ULN,[1]; [4],2.1%
same,subjects discontinued due to AEs or tolerability related reasons,[1]; [4],2.5%
CCCCCCCCc1ccc(CCC(N)(CO)CO)cc1 [fingolimod],ECG HR effect: nadir,[2],~6 h
fingolimod phosphate,migration distance,primary mouse OPCs,significantly decreased migration distance
CCc1cc(/C(C)=N/OCc2ccc(C3CCCCC3)c(C(F)(F)F)c2)ccc1CN1CC(C(=O)O)C1 [siponimod],ECG HR effect: nadir,[2],3 to 4 h
